Results: paper PMC8138313, “Identification, Selection and Immune Assessment of Liver Stage CD8 T Cell Epitopes From Plasmodium falciparum” (Frontiers in Immunology, 2021)
Where a SMILES comes first, the peptide text is derived from it.

Assays:
Assay in all cases: HLA class I binding assay (cell-free competition, fluorescence polarization)
HLA A*0101 = HLA A*0101 (Homo sapiens, UniProt P04439, A114D/A174V/A182V/D101N/D185E/E176A/E190D/L180R/Q94H/R68K/S129P/T187R/V100A/V91M/W191G)
HLA B*4402 = HLA B*4402 (Homo sapiens, UniProt P01889, A223V/A65T/A93T/A95T/D201E/D98Y/E176V/E187L/E204Q/E69K/G107R/H137Y/K202T/L105A/L119I/N104T/N87E/Q56L/Q94N/R106L/R155S/R180D/S101N/S121R/S35A/S48T/T118I/V36M/W191S/Y140D/Y91S)
HLA B*0702 = HLA B*0702 (Homo sapiens, UniProt P01889)
HLA A*2402 = HLA A*2402 (Homo sapiens, UniProt P04439, D101N/D140Y/D185E/E176V/E190D/F33S/G103R/G107R/I119L/I121M/I306V/K335N/L105A/L180Q/L300P/N151K/N90K/Q86E/Q94H/R106L/R138H/R89G/T104I/T345S/V100E/W191G/Y123F)
HLA A*0301 = HLA A*0301 (Homo sapiens, UniProt P04439)
HLA A*0201 = HLA A*0201 (Homo sapiens, UniProt P04439, D140Y/D185E/D98H/E176V/E277Q/G131W/G231S/I119V/I121R/I166T/I218V/L300P/L318F/N151K/N90K/P208A/P217A/Q86G/Q94H/R138H/R169H/T345S)

| SMILES | IC50 (HLA B*4402) [µM] | IC50 (HLA B*0702) [µM] | further results |
| --- | --- | --- | --- |
| CC(C)[C@H](NC(=O)[C@H](CCC(=O)O)NC(=O)[C@H](Cc1ccccc1)NC(=O)[C@@H](NC(=O)[C@H](CC(=O)O)NC(=O)[C@@H](N)CC(=O)O)[C@@H](C)O)C(=O)N[C@@H](Cc1ccc(O)cc1)C(=O)N[C@@H](CO)C(=O)N[C@@H](CCC(=O)O)C(=O)N[C@@H](Cc1ccc(O)cc1)C(=O)O (H-DDTFEVYSEY-OH; N-terminus assumed) | > 1000 | – | IC50 (HLA A*0101): > 1000 µM |
| CC[C@H](C)[C@H](N)C(=O)N[C@@H](CCC(=O)O)C(=O)N[C@@H](CC(N)=O)C(=O)N[C@@H](CC(N)=O)C(=O)N[C@@H](CC(C)C)C(=O)N[C@@H](Cc1ccc(O)cc1)C(=O)N[C@@H](CCC(=O)O)C(=O)N[C@@H](CCCNC(=N)N)C(=O)N[C@@H](CC(C)C)C(=O)O (H-IENNLYERL-OH) | 60.1 | – | – |
| CSCC[C@H](NC(=O)[C@H](CC(N)=O)NC(=O)[C@H](CCCCN)NC(=O)[C@H](CC(N)=O)NC(=O)[C@H](CCCCN)NC(=O)[C@H](Cc1ccccc1)NC(=O)[C@H](Cc1ccc(O)cc1)NC(=O)[C@H](CCC(=O)O)NC(=O)[C@@H](N)[C@@H](C)O)C(=O)O (H-TEYFKNKNM-OH) | 31.4 | – | – |
| CC[C@H](C)[C@H](NC(=O)[C@@H]1CCCN1C(=O)[C@@H](N)CC(C)C)C(=O)N[C@@H](CCC(=O)O)C(=O)N1CCC[C@H]1C(=O)N[C@@H](CCCCN)C(=O)N[C@@H](CCCCN)C(=O)N[C@@H](CC(C)C)C(=O)N[C@@H](C)C(=O)O (H-LPIEPKKLA-OH) | – | 561 | – |
| CC[C@H](C)[C@H](NC(=O)[C@H](CCCCN)NC(=O)CNC(=O)CNC(=O)[C@H](CC(C)C)NC(=O)[C@H](CCC(N)=O)NC(=O)[C@H](CO)NC(=O)[C@H](CCC(=O)O)NC(=O)[C@@H](N)Cc1ccc(O)cc1)C(=O)O (H-YESQLGGKI-OH) | 66.3 | – | – |
| CC[C@H](C)[C@H](NC(=O)[C@H](CC(N)=O)NC(=O)[C@@H](NC(=O)[C@@H]1CCCN1C(=O)[C@H](CCSC)NC(=O)[C@@H]1CCCN1C(=O)[C@@H](N)Cc1c[nH]cn1)[C@@H](C)CC)C(=O)N[C@@H](CCCCN)C(=O)N[C@@H](CC(C)C)C(=O)O (H-HPMPINIKL-OH) | – | 0.168 | – |
| CC(C)C[C@H](NC(=O)[C@H](C)NC(=O)[C@H](CO)NC(=O)[C@@H](NC(=O)[C@H](CCCCN)NC(=O)[C@H](CC(=O)O)NC(=O)[C@H](CCCNC(=N)N)NC(=O)[C@H](CS)NC(=O)[C@@H](N)Cc1c[nH]cn1)[C@@H](C)O)C(=O)O [HCRDKTSAL] (H-HCRDKTSAL-OH) | – | 28.6 | – |
| CC[C@H](C)[C@H](NC(=O)[C@H](Cc1ccccc1)NC(=O)[C@H](CCC(=O)O)NC(=O)[C@@H](NC(=O)[C@H](CC(=O)O)NC(=O)[C@H](CCC(=O)O)NC(=O)[C@H](CC(N)=O)NC(=O)[C@H](CCC(=O)O)NC(=O)[C@@H](N)CCSC)C(C)C)C(=O)O (H-MENEDVEFI-OH) | 36.9 | – | – |
| CC(C)C[C@H](NC(=O)[C@H](CC(N)=O)NC(=O)[C@H](CCC(=O)O)NC(=O)[C@@H](N)CCC(=O)O)C(=O)N[C@@H](Cc1ccccc1)C(=O)N[C@@H](CCC(=O)O)C(=O)N[C@@H](Cc1c[nH]c2ccccc12)C(=O)N[C@@H](CO)C(=O)N[C@@H](CCCCN)C(=O)N[C@H](C(=O)O)[C@@H](C)O (H-EENLFEWSKT-OH; N-terminus assumed) | > 1000 | – | – |
| CC(C)C[C@H](NC(=O)[C@H](CC(N)=O)NC(=O)[C@H](CC(C)C)NC(=O)[C@@H](N)CCCNC(=N)N)C(=O)N[C@@H](Cc1ccccc1)C(=O)N[C@@H](CS)C(=O)N[C@@H](Cc1ccccc1)C(=O)N[C@@H](CO)C(=O)N[C@@H](Cc1ccccc1)C(=O)O (H-RLNLFCFSF-OH) | > 1000 | – | IC50 (HLA A*2402): 11 µM |
| CC[C@H](C)[C@H](NC(=O)[C@H](CCC(=O)O)NC(=O)[C@H](CCC(=O)O)NC(=O)[C@@H](N)CC(N)=O)C(=O)N[C@H](C(=O)N[C@@H](CC(=O)O)C(=O)N[C@@H](CC(C)C)C(=O)N[C@@H](CC(C)C)C(=O)N[C@@H](CC(N)=O)C(=O)N[C@@H](CC(C)C)C(=O)O)[C@@H](C)CC (H-NEEIIDLLNL-OH) | 433 | – | – |
| N=C(N)NCCC[C@H](NC(=O)[C@H](Cc1c[nH]c2ccccc12)NC(=O)[C@H](Cc1ccccc1)NC(=O)[C@H](CC(N)=O)NC(=O)[C@@H]1CCCN1C(=O)[C@@H](N)CCCCN)C(=O)N[C@@H](Cc1ccccc1)C(=O)N[C@@H](CCC(N)=O)C(=O)N[C@@H](CC(=O)O)C(=O)N[C@@H](Cc1ccc(O)cc1)C(=O)O (H-KPNFWRFQDY-OH; N-terminus assumed) | – | > 1000 | – |
| CC(C)C[C@H](NC(=O)[C@H](C)NC(=O)[C@H](CC(=O)O)NC(=O)[C@H](Cc1ccccc1)NC(=O)[C@@H](NC(=O)[C@H](CC(N)=O)NC(=O)[C@@H]1CCCN1C(=O)[C@@H]1CCCN1C(=O)[C@@H](N)Cc1ccccc1)[C@@H](C)O)C(=O)O [FPPNTFDAL] (H-FPPNTFDAL-OH) | – | 2.72 | – |
| CC[C@H](C)[C@H](NC(=O)[C@@H]1CCCN1C(=O)[C@@H](N)Cc1ccc(O)cc1)C(=O)N[C@@H](CCC(=O)O)C(=O)N[C@@H](CCCCN)C(=O)N[C@@H](CC(C)C)C(=O)NCC(=O)N[C@@H](Cc1c[nH]cn1)C(=O)N[C@H](C(=O)O)C(C)C (H-YPIEKLGHV-OH) | – | 0.257 | – |
| CC(C)C[C@H](NC(=O)[C@H](CCC(N)=O)NC(=O)[C@@H](NC(=O)[C@@H]1CCCN1C(=O)[C@@H](N)CC(N)=O)C(C)C)C(=O)N[C@@H](CCCCN)C(=O)N[C@@H](CO)C(=O)N[C@@H](CCCCN)C(=O)N[C@@H](Cc1ccccc1)C(=O)O (H-NPVQLKSKF-OH) | – | 59.6 | – |
| C[C@H](N)C(=O)N[C@@H](CO)C(=O)N[C@@H](Cc1ccccc1)C(=O)N[C@@H](CO)C(=O)N[C@@H](C)C(=O)N[C@@H](CO)C(=O)N[C@H](C(=O)NCC(=O)N[C@@H](Cc1ccc(O)cc1)C(=O)O)[C@@H](C)O (H-ASFSASTGY-OH) | 31.7 | – | IC50 (HLA A*0101): > 1000 µM; IC50 (HLA A*0301): 2.37 µM |
| CC(C)C[C@H](NC(=O)[C@H](CO)NC(=O)[C@@H]1CCCN1C(=O)[C@H](CCCCN)NC(=O)[C@H](CC(N)=O)NC(=O)[C@H](CC(C)C)NC(=O)[C@H](CC(C)C)NC(=O)[C@H](CCCCN)NC(=O)[C@@H]1CCCN1C(=O)[C@@H](N)Cc1ccccc1)C(=O)O (H-FPKLLNKPSL-OH) | – | 73.1 | – |
| CC[C@H](C)[C@H](NC(=O)[C@H](CCC(N)=O)NC(=O)[C@@H](NC(=O)[C@H](C)NC(=O)[C@H](CCCCN)NC(=O)[C@H](CC(C)C)NC(=O)[C@H](CC(N)=O)NC(=O)[C@H](CCC(=O)O)NC(=O)[C@@H](N)CC(=O)O)[C@@H](C)CC)C(=O)O (H-DENLKAIQI-OH) | 91.3 | – | – |
| CC[C@H](C)[C@H](NC(=O)[C@@H](NC(=O)[C@@H](NC(=O)[C@H](Cc1c[nH]cn1)NC(=O)[C@H](CC(=O)O)NC(=O)[C@H](CCCCN)NC(=O)[C@H](CCCCN)NC(=O)[C@H](CCC(=O)O)NC(=O)[C@@H](N)CCCCN)[C@@H](C)CC)C(C)C)C(=O)O (H-KEKKDHIVI-OH) | 64.6 | – | – |
| CC(C)C[C@H](NC(=O)[C@H](Cc1ccccc1)NC(=O)[C@@H]1CCCN1C(=O)[C@H](Cc1c[nH]cn1)NC(=O)[C@H](CCCCN)NC(=O)[C@@H](N)CO)C(=O)N[C@@H](CCCCN)C(=O)N[C@@H](CO)C(=O)NCC(=O)N[C@@H](Cc1ccccc1)C(=O)O (H-SKHPFLKSGF-OH; N-terminus assumed) | > 1000 | – | – |
| CC[C@H](C)[C@H](NC(=O)CNC(=O)[C@H](CO)NC(=O)[C@H](CC(N)=O)NC(=O)[C@H](CC(=O)O)NC(=O)[C@@H](N)Cc1ccccc1)C(=O)N[C@@H](CO)C(=O)N[C@@H](CC(C)C)C(=O)N[C@@H](CC(C)C)C(=O)O (H-FDNSGISLL-OH) | > 1000 | – | IC50 (HLA A*0201): 229 µM |
| C[C@@H](O)[C@H](NC(=O)[C@H](CC(N)=O)NC(=O)[C@H](CC(N)=O)NC(=O)[C@H](CCC(=O)O)NC(=O)[C@@H](N)CC(N)=O)C(=O)N[C@H](C(=O)N[C@@H](Cc1ccc(O)cc1)C(=O)N[C@@H](CCC(N)=O)C(=O)N[C@@H](Cc1ccc(O)cc1)C(=O)O)[C@@H](C)O (H-NENNTTYQY-OH) | 18.4 | – | – |
| CC[C@H](C)[C@H](NC(=O)[C@H](CCC(=O)O)NC(=O)[C@H](CCCCN)NC(=O)[C@H](CCC(=O)O)NC(=O)[C@H](CCC(=O)O)NC(=O)[C@@H](N)CCCCN)C(=O)N[C@@H](CC(N)=O)C(=O)N[C@@H](CC(=O)O)C(=O)N[C@@H](CCC(=O)O)C(=O)N[C@@H](Cc1ccc(O)cc1)C(=O)O (H-KEEKEINDEY-OH; N-terminus assumed) | > 1000 | – | – |
| CC(C)C[C@H](NC(=O)[C@H](Cc1ccccc1)NC(=O)[C@H](CO)NC(=O)[C@H](Cc1ccccc1)NC(=O)[C@H](CS)NC(=O)[C@H](Cc1ccccc1)NC(=O)[C@H](CC(C)C)NC(=O)[C@H](CC(N)=O)NC(=O)[C@H](CC(C)C)NC(=O)[C@@H](N)CCCNC(=N)N)C(=O)O (H-RLNLFCFSFL-OH) | 421 | – | IC50 (HLA A*0301): 6.12 µM; IC50 (HLA A*0201): 161 µM |
| CC[C@H](C)[C@H](NC(=O)[C@H](CC(C)C)NC(=O)[C@@H](NC(=O)[C@@H](N)CO)[C@@H](C)CC)C(=O)N[C@@H](CO)C(=O)N[C@@H](CCCNC(=N)N)C(=O)N[C@@H](CC(C)C)C(=O)N[C@H](C(=O)N[C@@H](CC(C)C)C(=O)O)[C@@H](C)O (H-SILISRLTL-OH; N-terminus assumed) | > 1000 | – | – |
